Positions count from the first letter of the chain named.

Here are results for two compounds from ChEMBL document CHEMBL4396870, “Pharmacological Chaperones for the Treatment of α-Mannosidosis” (J Med Chem, 2019).

For experiment [1], the system named is T1, Lysosomal alpha-mannosidase (Homo sapiens), O00754 [C55F].
T1 sequence (whole entry): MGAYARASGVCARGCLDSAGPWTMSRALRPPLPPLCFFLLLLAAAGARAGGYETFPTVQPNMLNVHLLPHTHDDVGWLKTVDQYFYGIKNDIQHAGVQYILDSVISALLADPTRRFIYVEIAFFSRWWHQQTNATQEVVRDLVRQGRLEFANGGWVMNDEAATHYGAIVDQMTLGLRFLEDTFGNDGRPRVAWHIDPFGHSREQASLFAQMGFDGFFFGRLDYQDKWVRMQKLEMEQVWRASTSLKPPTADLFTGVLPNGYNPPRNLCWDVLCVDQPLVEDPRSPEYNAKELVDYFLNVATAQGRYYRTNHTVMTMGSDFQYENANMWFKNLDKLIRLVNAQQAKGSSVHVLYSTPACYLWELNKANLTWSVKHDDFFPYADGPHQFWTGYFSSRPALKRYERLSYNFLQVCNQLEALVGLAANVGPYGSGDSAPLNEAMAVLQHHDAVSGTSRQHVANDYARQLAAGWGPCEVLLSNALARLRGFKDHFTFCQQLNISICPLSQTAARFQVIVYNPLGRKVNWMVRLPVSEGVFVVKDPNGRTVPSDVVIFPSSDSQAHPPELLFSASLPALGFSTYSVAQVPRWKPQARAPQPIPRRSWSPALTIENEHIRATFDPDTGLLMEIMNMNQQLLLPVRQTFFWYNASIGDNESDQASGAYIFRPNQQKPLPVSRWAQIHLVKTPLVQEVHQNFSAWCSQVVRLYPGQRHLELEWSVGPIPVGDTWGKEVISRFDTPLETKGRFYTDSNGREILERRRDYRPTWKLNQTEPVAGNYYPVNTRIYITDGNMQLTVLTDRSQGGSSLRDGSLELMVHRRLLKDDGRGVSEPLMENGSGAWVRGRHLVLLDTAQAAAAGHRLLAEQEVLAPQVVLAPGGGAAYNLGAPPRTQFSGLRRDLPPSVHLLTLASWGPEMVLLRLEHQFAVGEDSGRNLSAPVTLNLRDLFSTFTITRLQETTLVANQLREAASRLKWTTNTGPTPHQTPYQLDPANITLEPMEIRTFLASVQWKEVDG
Description: Chaperone activity at human Lysosomal alpha-mannosidase C55F mutant transfected in human […] knockout HAP1 cells assessed as enzyme activity enhancement at 2 uM incubated for 96 hrs relative to control.

Experiment [2] concerns T2, Lysosomal alpha-mannosidase (Homo sapiens), O00754 [L565P].
T2 sequence (whole entry): T1 sequence (whole entry) with F55C, L565P
Description: Chaperone activity at human Lysosomal alpha-mannosidase L565P mutant transfected in human […] knockout HAP1 cells assessed as enzyme activity enhancement at 20 uM incubated for 96 hrs relative to control.

As for `CC(C)(C)OC(=O)NCCCCCCCCCN[C@@H]1[C@@H](O)[C@@H](O)[C@H](O)[C@H]2COC(=O)N21`, the Activity was determined as 51% in experiment [1] and 5% in experiment [2].
Take `COC[C@H]1O[C@@H]2O[C@H]3[C@H](OC)[C@@H](OC)[C@@H](O[C@H]4[C@H](OC)[C@@H](OC)[C@@H](O[C@H]5[C@H](OC)[C@@H](OC)[C@@H](O[C@H]6[C@H](OC)[C@@H](OC)[C@@H](O[C@H]7[C@H](OC)[C@@H](OC)[C@@H](O[C@H]8[C@H](OC)[C@@H](OC)[C@@H](O[C@H]1[C@H](OC)[C@H]2OC)O[C@@H]8COC)O[C@@H]7COC)O[C@@H]6COC)O[C@@H]5COCc1cn(CCCCCCN[C@@H]2[C@@H](O)[C@@H](O)[C@H](O)[C@H]5COC(=O)N52)nn1)O[C@@H]4COC)O[C@@H]3COC`: the Activity in experiment [1] is 12%; in experiment [2], 0%.
